Key:
Assay type in all cases: in vivo
[1] = system: velvetleaf (Abutilon theophrasti medicus); test: Test Example 2: herbicidal effect by soil application to upland field; settings: soil surface spray, upland field soil, 1,000 g active ingredient per hectare, 21st day after application
In short: (§1)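 Greenhouse pot assay with field soil. Freshly sown seeds were covered with soil, then the surface was sprayed with diluted wettable powder: 1,000 g a.i./ha, 1,000 L/ha. Herbicidal effect scored at day 21 by standard criteria.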

[2] = system: barnyardgrass (Echinochloa crus-galli (L.) P. Beauv. var. crus-galli); test: as above; settings: soil surface spray, upland field soil, 1,000 g active ingredient per hectare, 21st day after application
In short: as §1

[3] = system: slender amaranth (Amaranthus viridis L.); test: as above; settings: soil surface spray, upland field soil, 1,000 g active ingredient per hectare, 21st day after application
In short: as §1

[4] = system: green foxtail (Setaria viridis (L.) P. Beauv.); test: as above; settings: soil surface spray, upland field soil, 1,000 g active ingredient per hectare, 21st day after application
In short: as §1

[5] = system: velvetleaf (Abutilon theophrasti medicus); test: Test Example 3: herbicidal effect by application to upland field (foliage treatment); settings: 14th day after application; for herbicidal effect, Velvetleaf: foliage treatment, 1,000 g active ingredient per 1 hectare, greenhouse; for herbicidal effect (index), Velvetleaf: foliage treatment, plants grown two weeks, 1,000 g active ingredient per hectare
In short: (§2)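 Foliar spray on two-week-old greenhouse weeds in field soil: wettable powder formulation diluted in water, applied at 1,000 L/ha to give 1,000 g a.i./ha. Damage rated by a fixed scoring standard on day 14 after application.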

[6] = system: barnyardgrass (Echinochloa crus-galli (L.) P. Beauv. var. crus-galli); test: as above; settings: 14th day after application; for herbicidal effect, Barnyardgrass: foliage treatment, 1,000 g active ingredient per 1 hectare, greenhouse; for herbicidal effect (index), Barnyardgrass: foliage treatment, plants grown two weeks, 1,000 g active ingredient per hectare
In short: as §2

[7] = system: slender amaranth (Amaranthus viridis L.); test: as above; settings: 14th day after application; for herbicidal effect, Slender Amaranth: foliage treatment, 1,000 g active ingredient per 1 hectare, greenhouse; for herbicidal effect (index), Slender Amaranth: foliage treatment, plants grown two weeks, 1,000 g active ingredient per hectare
In short: as §2

[8] = system: green foxtail (Setaria viridis (L.) P. Beauv.); test: as above; settings: 14th day after application; for herbicidal effect, Green Foxtail: foliage treatment, 1,000 g active ingredient per 1 hectare, greenhouse; for herbicidal effect (index), Green Foxtail: foliage treatment, plants grown two weeks, 1,000 g active ingredient per hectare
In short: as §2

[9] = system: Japanese bulrush (Scirpus juncoides Roxb.); test: Test Example 1: herbicidal effect by soil application to paddy field; settings: paddy field soil application; active ingredient 1,000 g per 1 hectare; wettable powder added dropwise to water surface the day after sowing; examined on the 21st day after application
In short: (§3)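 Under greenhouse conditions, seeds sown on puddled paddy soil in 100 cm2 pots under 3 cm of standing water received the test compound; injury was assessed with a standard scoring scheme three weeks (day 21) after treatment.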

[10] = system: heartshape false pickerelweed (Monochoria vaginalis (Burm.f.) C.Presl); test: as above; settings: paddy field soil application; active ingredient 1,000 g per 1 hectare; wettable powder added dropwise to water surface the day after sowing; examined on the 21st day after application
In short: as §3

[11] = system: early watergrass (Echinochloa oryzicola Vasing); test: as above; settings: paddy field soil application; active ingredient 1,000 g per 1 hectare; wettable powder added dropwise to water surface the day after sowing; examined on the 21st day after application
In short: as §3

| Structure (SMILES) | herbicidal effect (index), Velvetleaf [1] | herbicidal effect (index), Barnyardgrass [2] | herbicidal effect (index), Slender Amaranth [3] | herbicidal effect (index), Green Foxtail [4] | herbicidal effect, Velvetleaf [5] | herbicidal effect, Barnyardgrass [6] | herbicidal effect, Slender Amaranth [7] | herbicidal effect, Green Foxtail [8] | herbicidal effect, Scirpus juncoides Roxb. [9] | herbicidal effect, Monochoria vaginalis (Burm. f.) C. Presl [10] | herbicidal effect, Echinochloa oryzicola Vasing [11] | herbicidal effect (index), Velvetleaf [5] | herbicidal effect (index), Barnyardgrass [6] | herbicidal effect (index), Slender Amaranth [7] | herbicidal effect (index), Green Foxtail [8] |
| --- | --- | --- | --- | --- | --- | --- | --- | --- | --- | --- | --- | --- | --- | --- | --- |
| O=C1CCCC(O)=C1C(=O)c1ccc(C(F)(F)F)n(N2CCOCC2)c1=O [I-178] | 5 (90% or more of herbicidal effect and crop phytotoxicity) | 5 (90% or more of herbicidal effect and crop phytotoxicity) | 5 (90% or more of herbicidal effect and crop phytotoxicity) | 5 (90% or more of herbicidal effect and crop phytotoxicity) | 5 (90% or more of herbicidal effect and crop phytotoxicity) | 5 (90% or more of herbicidal effect and crop phytotoxicity) | 5 (90% or more of herbicidal effect and crop phytotoxicity) | 5 (90% or more of herbicidal effect and crop phytotoxicity) | 5 (90% or more of herbicidal effect and crop phytotoxicity) | 5 (90% or more of herbicidal effect and crop phytotoxicity) | 5 (90% or more of herbicidal effect and crop phytotoxicity) |  |  |  |  |
| Cc1ccc(-n2c(C(F)(F)F)ccc(C(=O)C3=C(O)C4CCC(C4)C3=O)c2=O)cc1 (stereo not shown) [III-35] | 5 (90% or more of herbicidal effect and crop phytotoxicity) | 5 (90% or more of herbicidal effect and crop phytotoxicity) | 5 (90% or more of herbicidal effect and crop phytotoxicity) | 5 (90% or more of herbicidal effect and crop phytotoxicity) | 5 (90% or more of herbicidal effect and crop phytotoxicity) | 5 (90% or more of herbicidal effect and crop phytotoxicity) | 5 (90% or more of herbicidal effect and crop phytotoxicity) | 5 (90% or more of herbicidal effect and crop phytotoxicity) | 5 (90% or more of herbicidal effect and crop phytotoxicity) | 5 (90% or more of herbicidal effect and crop phytotoxicity) | 5 (90% or more of herbicidal effect and crop phytotoxicity) |  |  |  |  |
| COc1ccc(-n2c(C(F)(F)F)ccc(C(=O)C3=C(O)CCCC3=O)c2=O)cc1F [I-109] | 5 (90% or more of herbicidal effect and crop phytotoxicity) | 5 (90% or more of herbicidal effect and crop phytotoxicity) | 5 (90% or more of herbicidal effect and crop phytotoxicity) | 5 (90% or more of herbicidal effect and crop phytotoxicity) | 5 (90% or more of herbicidal effect and crop phytotoxicity) | 5 (90% or more of herbicidal effect and crop phytotoxicity) | 5 (90% or more of herbicidal effect and crop phytotoxicity) | 4 (70 to less than 90% of herbicidal effect and crop phytotoxicity) | 5 (90% or more of herbicidal effect and crop phytotoxicity) | 5 (90% or more of herbicidal effect and crop phytotoxicity) | 4 (70 to less than 90% of herbicidal effect and crop phytotoxicity) |  |  |  |  |
| CCCS(=O)(=O)Oc1c(C(=O)c2ccc(C(F)(F)F)n(CCOCCOC)c2=O)cnn1CC [IV-204] | 5 (90% or more of herbicidal effect and crop phytotoxicity) | 5 (90% or more of herbicidal effect and crop phytotoxicity) | 5 (90% or more of herbicidal effect and crop phytotoxicity) | 5 (90% or more of herbicidal effect and crop phytotoxicity) | 5 (90% or more of herbicidal effect and crop phytotoxicity) | 5 (90% or more of herbicidal effect and crop phytotoxicity) | 5 (90% or more of herbicidal effect and crop phytotoxicity) | 5 (90% or more of herbicidal effect and crop phytotoxicity) | 5 (90% or more of herbicidal effect and crop phytotoxicity) | 5 (90% or more of herbicidal effect and crop phytotoxicity) | 5 (90% or more of herbicidal effect and crop phytotoxicity) |  |  |  |  |
| CCCn1c(C(F)(F)F)c(C)cc(C(=O)C2=C(O)C3CCC(C3)C2=O)c1=O (stereo not shown) [III-18] | 5 (90% or more of herbicidal effect and crop phytotoxicity) | 5 (90% or more of herbicidal effect and crop phytotoxicity) | 5 (90% or more of herbicidal effect and crop phytotoxicity) | 3 (50 to less than 70% of herbicidal effect and crop phytotoxicity) | 5 (90% or more of herbicidal effect and crop phytotoxicity) | 5 (90% or more of herbicidal effect and crop phytotoxicity) | 5 (90% or more of herbicidal effect and crop phytotoxicity) | 5 (90% or more of herbicidal effect and crop phytotoxicity) | 5 (90% or more of herbicidal effect and crop phytotoxicity) | 5 (90% or more of herbicidal effect and crop phytotoxicity) | 5 (90% or more of herbicidal effect and crop phytotoxicity) |  |  |  |  |
| O=C1CCCC(O)=C1C(=O)c1ccc(C(F)(F)F)n(-c2cc(F)cc(F)c2)c1=O [I-106] | 5 (90% or more of herbicidal effect and crop phytotoxicity) | 5 (90% or more of herbicidal effect and crop phytotoxicity) | 5 (90% or more of herbicidal effect and crop phytotoxicity) | 5 (90% or more of herbicidal effect and crop phytotoxicity) |  |  |  |  | 5 (90% or more of herbicidal effect and crop phytotoxicity) | 5 (90% or more of herbicidal effect and crop phytotoxicity) | 5 (90% or more of herbicidal effect and crop phytotoxicity) | 5 (90% or more of herbicidal effect and crop phytotoxicity) | 5 (90% or more of herbicidal effect and crop phytotoxicity) | 5 (90% or more of herbicidal effect and crop phytotoxicity) | 5 (90% or more of herbicidal effect and crop phytotoxicity) |
| O=C1CCCC(O)=C1C(=O)c1ccc(C(F)(F)F)n(-c2cccc([N+](=O)[O-])c2)c1=O [I-87] | 5 (90% or more of herbicidal effect and crop phytotoxicity) | 5 (90% or more of herbicidal effect and crop phytotoxicity) | 5 (90% or more of herbicidal effect and crop phytotoxicity) | 5 (90% or more of herbicidal effect and crop phytotoxicity) |  |  |  |  | 5 (90% or more of herbicidal effect and crop phytotoxicity) | 5 (90% or more of herbicidal effect and crop phytotoxicity) | 5 (90% or more of herbicidal effect and crop phytotoxicity) | 5 (90% or more of herbicidal effect and crop phytotoxicity) | 5 (90% or more of herbicidal effect and crop phytotoxicity) | 5 (90% or more of herbicidal effect and crop phytotoxicity) | 5 (90% or more of herbicidal effect and crop phytotoxicity) |
| CC(=O)Oc1c(C(=O)c2ccc(C(F)(F)F)n(C)c2=O)cnn1C [IV-174] | 5 (90% or more of herbicidal effect and crop phytotoxicity) | 5 (90% or more of herbicidal effect and crop phytotoxicity) | 5 (90% or more of herbicidal effect and crop phytotoxicity) | 5 (90% or more of herbicidal effect and crop phytotoxicity) | 5 (90% or more of herbicidal effect and crop phytotoxicity) | 5 (90% or more of herbicidal effect and crop phytotoxicity) | 5 (90% or more of herbicidal effect and crop phytotoxicity) | 5 (90% or more of herbicidal effect and crop phytotoxicity) | 5 (90% or more of herbicidal effect and crop phytotoxicity) | 5 (90% or more of herbicidal effect and crop phytotoxicity) | 5 (90% or more of herbicidal effect and crop phytotoxicity) |  |  |  |  |

— patent publication US8076487B2, “Pyridone derivative and herbicide” (Kumiai Chemical Industry Co., Ltd., priority 2006, dated 2011)
